Measured values taken from the supplement of paper PMC11061612.

Columns and labels:
[1] = compound: CC(=O)Nc1cccc(-n2c(=O)n(C3CC3)c(=O)c3c(Nc4ccc(I)cc4F)n(C)c(=O)c(C)c32)c1 [Trametinib]; conditions: max 1 µM
How it was run: (§1)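 Following 24 hours at 37°C and 5% CO2, cancer cell lines in 1536-well plates with 7.5 μl DMEM/F12 or RPMI and 10% FBS were dosed for 72 hours, final DMSO typically being 0.2%. CellTiter-Glo 2.0 luminescence, scaled between blank-well and DMSO-well means, gave the viability readout. Dose responses were fitted to a two-parameter logistic curve with a non-linear mixed effects model, and the single-agent IC50 was derived from this fit.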

[2] = compound: Cc1cc2ncnn2cc1Nc1ncc2c(n1)n(C1CCOCC1)c(=O)n2C [AZD7648]; conditions: max 10 µM
How it was run: as §1

[3] = compound: COc1cc(Nc2ncc3c(n2)-c2ccc(Cl)cc2C(c2c(F)cccc2OC)=NC3)ccc1C(=O)O [Alisertib]; conditions: max 10 µM
How it was run: as §1

[4] = compound: COc1nnc2ccc(N3CCC(c4ccc(OCCN5CCN(C)C(=O)[C@H]5C)cc4)CC3)nn12 [AZD5153]; conditions: max 1 µM
How it was run: as §1

[5] = compound: Cc1nc(-c2cn3c(n2)-c2ccc(-c4cnn(C(C)(C)C(N)=O)c4)cc2OCC3)n(C(C)C)n1 [Taselisib]; conditions: max 10 µM
How it was run: as §1

[6] = compound: C[C@@H]1COCCN1C2=NC(=NC(=C2)C3(CC3)[S@](=N)(=O)C)C4=C5C=CNC5=NC=C4 [AZD6738]; conditions: max 10 µM
How it was run: as §1

[7] = compound: COc1cccc2c1C(=O)c1c(O)c3c(c(O)c1C2=O)C[C@@](O)(C(=O)CO)C[C@@H]3O[C@H]1C[C@H](N)[C@H](O)[C@H](C)O1 [Doxorubicin]; conditions: max 1 µM
How it was run: as §1

[8] = compound: CC1=CN2[C@@H](C1)C=NC3=CC(=C(C=C3C2=O)OC)OCCCCCOC4=C(C=C5C(=C4)N=C[C@@H]6CC(=CN6C5=O)C)OC [SG3199]; conditions: max 0.001 µM
How it was run: as §1

[9] = compound: C=CCn1c(=O)c2cnc(Nc3ccc(N4CCN(C)CC4)cc3)nc2n1-c1cccc(C(C)(C)O)n1 [AZD1775]; conditions: max 3 µM
How it was run: as §1

[10] = compound: CCc1c2c(nc3ccc(O)cc13)-c1cc3c(c(=O)n1C2)COC(=O)[C@]3(O)CC [SN-38]; conditions: max 0.3 µM
How it was run: as §1

[11] = compound: Cn1cnc2c(F)c(Nc3ccc(Br)cc3Cl)c(C(=O)NOCCO)cc21 [Selumetinib]; conditions: max 10 µM
How it was run: as §1

[12] = compound: CS(=O)(=O)CCNCc1ccc(-c2ccc3ncnc(Nc4ccc(OCc5cccc(F)c5)c(Cl)c4)c3c2)o1 [Lapatinib]; conditions: max 10 µM
How it was run: as §1

[13] = compound: CC1(C)CCC(CN2CCN(c3ccc(C(=O)NS(=O)(=O)c4ccc(NCC5CCOCC5)c([N+](=O)[O-])c4)c(Oc4cnc5[nH]ccc5c4)c3)CC2)=C(c2ccc(Cl)cc2)C1 [Venetoclax]; conditions: max 1 µM
How it was run: as §1

[14] = compound: COc1cccc(OCCCN)c1-c1cc(Nc2cnc(C#N)cn2)n[nH]1 [Prexasertib]; conditions: max 1 µM
How it was run: as §1

[15] = compound: CC1=C(C(=CC=C1)Cl)NC(=O)C2=CN=C(S2)NC3=CC(=NC(=N3)C)N4CCN(CC4)CCO [Dasatinib]; conditions: max 2 µM
How it was run: as §1

[16] = compound: C[C@@H](c1ccc2nccn2c1)n1nnc2ncc(-c3cnn(C)c3)nc21 [Savolitinib]; conditions: max 1 µM
How it was run: as §1

[17] = compound: CN(CC[C@H](CSC1=CC=CC=C1)NC2=C(C=C(C=C2)S(=O)(=O)NC(=O)C3=CC=C(C=C3)N4CCC(CC4)[C@H](C5=CC=CC=C5C6=CC=C(C=C6)Cl)O)S(=O)(=O)C(F)(F)F)CCO [AZD4320]; conditions: max 1 µM
How it was run: as §1

[18] = compound: CCN(CCO)CCCOc1ccc2c(Nc3cc(CC(=O)Nc4cccc(F)c4)[nH]n3)ncnc2c1 [AZD2811]; conditions: max 1 µM
How it was run: as §1

[19] = compound: C[C@@H](Oc1cc(-c2cnn(C3CCNCC3)c2)cnc1N)c1c(Cl)ccc(F)c1Cl [Crizotinib]; conditions: max 10 µM
How it was run: as §1

[20] = compound: CC(C)n1c(=O)n(C)c2cnc3cc(F)c(-c4ccc(OCCCN5CCCCC5)nc4)cc3c21 [AZD1390]; conditions: max 0.3 µM
How it was run: as §1

[21] = compound: C1CN(CCC1(C(=O)N[C@@H](CCO)C2=CC=C(C=C2)Cl)N)C3=NC=NC4=C3C=CN4 [Capivasertib]
How it was run: as §1

[22] = compound: O=C(c1cc(Cc2n[nH]c(=O)c3ccccc23)ccc1F)N1CCN(C(=O)C2CC2)CC1 [Olaparib]
How it was run: as §1

[23] = compound: Cc1c2c(nn1C)CSCc1cc(n(C)n1)CSc1cc(c3ccccc3c1)OCCCc1c(C(=O)O)n(C)c3c-2c(Cl)ccc13 [AZD5991]; conditions: max 1 µM
How it was run: as §1

[24] = compound: C[C@@H](Nc1cc(F)cc(F)c1)c1cc(C(=O)N(C)C)cc2c(=O)cc(N3CCOCC3)oc12 [AZD8186]; conditions: max 3 µM
How it was run: as §1

[25] = compound: CN(C)CCCOc1ccc(-c2ccc3ncc4c(c3c2)n(C2CCOCC2)c(=O)n4C)cn1 [AZD0156]; conditions: max 3 µM
How it was run: as §1

[26] = compound: CC(=O)c1c(C)c2cnc(Nc3ccc(N4CCNCC4)cn3)nc2n(C2CCCC2)c1=O [Palbociclib]; conditions: max 10 µM
How it was run: as §1

[27] = compound: COc1cc2ncnc(Nc3ccc(F)c(Cl)c3)c2cc1OCCCN1CCOCC1 [Gefitinib]; conditions: max 10 µM
How it was run: as §1

| Cell Line | IC50, cell viability 72 h [1] | IC50, cell viability 72 h [2] | IC50, cell viability 72 h [3] | IC50, cell viability 72 h [4] | IC50, cell viability 72 h [5] | IC50, cell viability 72 h [6] | IC50, cell viability 72 h [7] | IC50, cell viability 72 h [8] | IC50, cell viability 72 h [9] | IC50, cell viability 72 h [10] | IC50, cell viability 72 h [11] | IC50, cell viability 72 h [12] | IC50, cell viability 72 h [13] | IC50, cell viability 72 h [14] | IC50, cell viability 72 h [15] | IC50, cell viability 72 h [16] | IC50, cell viability 72 h [17] | IC50, cell viability 72 h [18] | IC50, cell viability 72 h [19] | IC50, cell viability 72 h [20] | IC50, cell viability 72 h ([21]; max 10 µM) | IC50, cell viability 72 h ([22]; max 10 µM) | IC50, cell viability 72 h [23] | IC50, cell viability 72 h [24] | IC50, cell viability 72 h [25] | IC50, cell viability 72 h [26] | IC50, cell viability 72 h [27] | IC50, cell viability 72 h ([21]; max 3 µM) | IC50, cell viability 72 h ([22]; max 3 µM) |
| --- | --- | --- | --- | --- | --- | --- | --- | --- | --- | --- | --- | --- | --- | --- | --- | --- | --- | --- | --- | --- | --- | --- | --- | --- | --- | --- | --- | --- | --- |
| 8505C (Thyroid Gland Carcinoma) | > 1000 nM | > 10000 nM | > 10000 nM | > 1000 nM | > 10000 nM | > 10000 nM | 565 nM | > 1 nM | 1600 nM | 23.6 nM | > 10000 nM | > 10000 nM | > 1000 nM | 829 nM | > 2000 nM | > 1000 nM | > 1000 nM | > 1000 nM | > 10000 nM | > 300 nM | > 10000 nM | > 10000 nM | > 1000 nM | > 3000 nM | > 3000 nM | > 10000 nM | > 10000 nM | – | – |
| BICR10 (Oral Cavity Carcinoma) | – | – | – | – | – | – | – | – | 413 nM | – | – | – | – | – | – | – | – | – | – | – | – | – | – | – | > 3000 nM | – | – | 2520 nM | > 3000 nM |
| CHSA8926 (Chondrosarcoma) | – | > 10000 nM | > 10000 nM | > 1000 nM | 1520 nM | > 10000 nM | 703 nM | > 1 nM | 1270 nM | > 300 nM | > 10000 nM | > 10000 nM | > 1000 nM | > 1000 nM | 60.8 nM | > 1000 nM | > 1000 nM | > 1000 nM | 9160 nM | > 300 nM | > 10000 nM | > 10000 nM | > 1000 nM | 2240 nM | > 3000 nM | > 10000 nM | > 10000 nM | – | – |
| DAN-G (Pancreatic Carcinoma) | 675 nM | > 10000 nM | > 10000 nM | > 1000 nM | 718 nM | 5490 nM | > 1000 nM | > 1 nM | 405 nM | > 300 nM | > 10000 nM | > 10000 nM | > 1000 nM | 72.7 nM | > 2000 nM | > 1000 nM | > 1000 nM | > 1000 nM | > 10000 nM | > 300 nM | > 10000 nM | > 10000 nM | > 1000 nM | > 3000 nM | > 3000 nM | > 10000 nM | > 10000 nM | – | – |
| ESO51 (Esophageal Adenocarcinoma) | 35 nM | > 10000 nM | > 10000 nM | 354 nM | > 10000 nM | 1790 nM | > 1000 nM | > 1 nM | 298 nM | > 300 nM | > 10000 nM | > 10000 nM | > 1000 nM | 42.4 nM | > 2000 nM | 14.2 nM | > 1000 nM | > 1000 nM | 186 nM | > 300 nM | > 10000 nM | > 10000 nM | > 1000 nM | > 3000 nM | > 3000 nM | > 10000 nM | > 10000 nM | – | – |
| G-361 (Melanoma) | 14.6 nM | > 10000 nM | > 10000 nM | 277 nM | 7240 nM | > 10000 nM | 816 nM | > 1 nM | 1590 nM | > 300 nM | 1540 nM | 8000 nM | > 1000 nM | 149 nM | > 2000 nM | > 1000 nM | > 1000 nM | > 1000 nM | 8660 nM | > 300 nM | > 10000 nM | > 10000 nM | 306 nM | > 3000 nM | > 3000 nM | > 10000 nM | > 10000 nM | – | – |
| HCC1187 (Breast Carcinoma) | > 1000 nM | > 10000 nM | 114 nM | > 1000 nM | > 10000 nM | > 10000 nM | > 1000 nM | > 1 nM | 1060 nM | > 300 nM | > 10000 nM | > 10000 nM | > 1000 nM | 362 nM | > 2000 nM | > 1000 nM | > 1000 nM | 29.4 nM | 4570 nM | > 300 nM | > 10000 nM | > 10000 nM | 87.7 nM | > 3000 nM | > 3000 nM | > 10000 nM | > 10000 nM | – | – |
| HCC1419 (Breast Carcinoma) | > 1000 nM | > 10000 nM | > 10000 nM | > 1000 nM | 7760 nM | > 10000 nM | > 1000 nM | > 1 nM | > 3000 nM | > 300 nM | > 10000 nM | – | > 1000 nM | > 1000 nM | – | > 1000 nM | > 1000 nM | > 1000 nM | – | > 300 nM | – | > 10000 nM | > 1000 nM | > 3000 nM | > 3000 nM | – | > 10000 nM | > 3000 nM | – |
| JHH-4 (Hepatocellular Carcinoma) | 118 nM | > 10000 nM | 6480 nM | > 1000 nM | > 10000 nM | > 10000 nM | > 1000 nM | > 1 nM | > 3000 nM | 31 nM | > 10000 nM | > 10000 nM | > 1000 nM | 912 nM | 173 nM | > 1000 nM | > 1000 nM | > 1000 nM | > 10000 nM | > 300 nM | > 10000 nM | > 10000 nM | > 1000 nM | > 3000 nM | > 3000 nM | > 10000 nM | > 10000 nM | – | – |
